# Patent publication US4594340A, “25,26-dehydro-1α,24R-dihydroxycholecalciferol and 25,26-dehydro-1α,24S-dihydroxycholecalciferol and the epimeric mixture” (Hoffmann-La Roche Inc., priority 1984, dated 1986)
# Where two headings read alike, the source gives them in different places.
# What was measured:
# [1] = test system: HL-60 cells; test: Anti-proliferative effect on HL-60 cells (Coulter Counter enumeration); format: cell-based, human (patient); settings: for inhibition at 0.015 µM / inhibition at 0.045 µM / inhibition at 0.09 µM: Homo sapiens, read-out: percent reduction of cell numbers relative to control
# Experimental: (§1) Cultures of HL-60 cells were established in the absence (control) or presence of various concentrations of the test compound. After a 4-day incubation period, the cultures were evaluated for proliferation of tumor cells, tumor cell viability, and cellular differentiation. Proliferation was assessed by directly enumerating the increased number of tumor cells resulting from incubation. Viability was determined by dye exclusion technique to learn whether any of the compounds were lethal to cultured HL-60 cells. Cellular differentiation was evaluated by determining the number of cells which had acquired the enzymes necessary to support a respiratory burst and the functional ability to phagocytose (bind/internalize) particulate material from their environment; both activities being characteristic of mature macrophages and granulocytes,
# Tissure culture medium used in these experiments was RPM1-1640 supplemented prior to use to 10% v/v with fetal bovine serum (heat inactivated at 56° for 30 minutes), to 130 units per ml with penicillin and 130 μg per ml with streptomycin, and to an additional 1.6 millimolar with L-glutamine.
# (§2) Experimental compounds were dissolved in sufficient ethanol to yield stock solutions of 1×10^-2 molar. Reduced lighting was employed when working with compounds and stock solutions were stored in the dark at -20° in an argon atmosphere. Compounds were diluted with tissue culture medium and added to flasks containing HL-60 cells to achieve the final concentrations described in each experiment.
# (§3) The promyelocytic (HL-60) tumor cell line was derived from a patient with acute promyelocytic leukemia. HL-60 cells were maintained in liquid culture by serial weekly passage in tissue culture medium. In any experiment, three replicate flasks were incubated without compound (control) or in the presence of varying concentrations of compound. […]
# Quantitation of proliferation was done by enumerating the number of HL-60 cells in each individual flasks (3 flasks per experimental point) using a model ZBI Coulter Counter. Results are shown as the number of cells per ml of tissue culture medium expressed as the mean±standard deviation and as percent reduction of cell number calculated according to the formula: [formula] Experimental cultures with the same or slightly greater cell numbers than control cultures are reported as zero percent reduction.
# [2] = test system: HL-60 cells; test: Differentiation of HL-60 cells by nitroblue tetrazolium (NBT) reduction; format: cell-based, human (patient)
# Experimental: as §1, with “After a 4-day incubation period, the cultures were evaluated for proliferation of tumor cells, tumor cell viability, and cellular differentiation.” left out
# as §2, §3
# Quantitation of differentiated cells was done by the biochemical method of nitroblue tetrazolium (NBT) reduction. Sufficient cells were pooled from replicate cultures, centrifuged at 220×g, washed once with serum-free tissue culture medium, and resuspended to 1×10^6 cells per ml in Ca^++ --Mg^++ -deficient phosphate buffered saline (prepared by supplementing Ca^++ --Mg^++ -free phosphate buffered saline (PBS) to 10% v/v with heat-inactivated fetal bovine serum). Nitroblue tetrazolium was dissolved at 1 mg per ml in Ca^++ --Mg^++ -deficient PBS with gentle heating and mixing. Tetradecanoyl phorbol acetate (TPA) was dissolved at 1 mg per ml in ethanol and stored at -20° C. Just prior to use, a working solution of TPA was prepared by diluting the stock concentration 100-fold with Ca^++ --Mg^++ -deficient PBS. The test was done in 12×75 mm tubes by adding 0.5 ml Ca^++ --Mg^++ -deficient PBS, 1.0 ml of HL-60 cells, 0.5 ml of NBT solution, and 0.02 ml of the working TPA solution. After mixing, the tubes were incubated in a 37° water bath for 25 minutes then transferred to ice. Undifferentiated and differentiated cells present in any sample were determined microscopically by surveying 200-400 cells per sample or by cytofluorograph by surveying greater than 30,000 cells. Cells without pigmented granules (clear cells) were judged to be undifferentiated while those containing greater than 3 blue-black formazan granules were scored as differentiated. […] Results are expressed as the percentage of differentiated cells present in any sample as calculated according to the formula: [formula]
smiles,measurement,setting,value
"C=C(C)[C@H](O)CC[C@@H](C)[C@H]1CC[C@H]2/C(=C/C=C3/C[C@@H](O)C[C@H](O)C3=C)CCC[C@]12C [25,26-dehydro-1α,24R-dihydroxycholecalciferol]",inhibition of proliferation of HL-60 cells,[1],"inhibited by 25,26-dehydro-1α,24R-dihydroxycholecalciferol in a dose-dependent fashion"
same,HL-60 Cells per ml,"[1]; 15 × 10^-9 molar (first line of that concentration), day 3",12.0 ± 0.2 cells per ml (× 10^-4)
same,HL-60 Cells per ml,"[1]; 15 × 10^-9 molar (first line of that concentration), day 4",24.1 ± 1.0 cells per ml (× 10^-4)
same,HL-60 Cells per ml,"[1]; 15 × 10^-9 molar (first line of that concentration), day 6",113.0 ± 1.4 cells per ml (× 10^-4)
same,HL-60 Cells per ml,"[1]; 15 × 10^-9 molar (second line), day 3",12.0 ± 0.5 cells per ml (× 10^-4)
same,HL-60 Cells per ml,"[1]; 15 × 10^-9 molar (second line), day 4",22.0 ± 0.4 cells per ml (× 10^-4)
same,HL-60 Cells per ml,"[1]; 15 × 10^-9 molar (second line), day 6",71.4 ± 1.3 cells per ml (× 10^-4)
same,HL-60 Cells per ml,"[1]; 45 × 10^-9 molar, day 3",12.3 ± 0.2 cells per ml (× 10^-4)
same,HL-60 Cells per ml,"[1]; 45 × 10^-9 molar, day 4",19.0 ± 0.8 cells per ml (× 10^-4)
same,HL-60 Cells per ml,"[1]; 45 × 10^-9 molar, day 6",31.4 ± 0.5 cells per ml (× 10^-4)
same,HL-60 Cells per ml,"[1]; 90 × 10^-9 molar, day 3",11.8 ± 0.1 cells per ml (× 10^-4)
same,HL-60 Cells per ml,"[1]; 90 × 10^-9 molar, day 4",15.4 ± 0.9 cells per ml (× 10^-4)
same,HL-60 Cells per ml,"[1]; 90 × 10^-9 molar, day 6",21.4 ± 1.1 cells per ml (× 10^-4)
same,inhibition at 0.015 µM,"[1]; HL-60, 72 h, 15 × 10^-9 molar (first line of that concentration), day 3",0%
same,inhibition at 0.015 µM,"[1]; HL-60, 72 h, 15 × 10^-9 molar (second line), day 3",0%
same,inhibition at 0.045 µM,"[1]; HL-60, 72 h, 45 × 10^-9 molar, day 3",0%
same,inhibition at 0.09 µM,"[1]; HL-60, 72 h, 90 × 10^-9 molar, day 3",0%
same,inhibition at 0.015 µM,"[1]; HL-60, 96 h, 15 × 10^-9 molar (first line of that concentration), day 4",9%
same,inhibition at 0.015 µM,"[1]; HL-60, 96 h, 15 × 10^-9 molar (second line), day 4",17%
same,inhibition at 0.045 µM,"[1]; HL-60, 96 h, 45 × 10^-9 molar, day 4",28%
same,inhibition at 0.09 µM,"[1]; HL-60, 96 h, 90 × 10^-9 molar, day 4",42%
same,inhibition at 0.015 µM,"[1]; HL-60, 144 h, 15 × 10^-9 molar (first line of that concentration), day 6",11%
same,inhibition at 0.015 µM,"[1]; HL-60, 144 h, 15 × 10^-9 molar (second line), day 6",44%
same,inhibition at 0.045 µM,"[1]; HL-60, 144 h, 45 × 10^-9 molar, day 6",75%
same,inhibition at 0.09 µM,"[1]; HL-60, 144 h, 90 × 10^-9 molar, day 6",83%
same,inhibition of proliferation detectable by cell enumeration as early as,[1]; day of incubation,4 days
same,induction of cellular differentiation (NBT reduction),"[2]; 5, 15, 45 or 90×10^-9 molar, all incubation times",increasing proportions of differentiated cells at all incubation times
same,% diff. (NBT reduction),"[2]; 5 × 10^-9 molar, day 3",5%
same,diff. cells / total (NBT reduction),"[2]; 5 × 10^-9 molar, day 3",2443/44545
same,% diff. (NBT reduction),"[2]; 5 × 10^-9 molar, day 4",8%
same,diff. cells / total (NBT reduction),"[2]; 5 × 10^-9 molar, day 4",3401/42923
same,% diff. (NBT reduction),"[2]; 5 × 10^-9 molar, day 6",7%
same,diff. cells / total (NBT reduction),"[2]; 5 × 10^-9 molar, day 6",3179/47638
same,% diff. (NBT reduction),"[2]; 15 × 10^-9 molar, day 3",22%
same,diff. cells / total (NBT reduction),"[2]; 15 × 10^-9 molar, day 3",8971/40398
same,% diff. (NBT reduction),"[2]; 15 × 10^-9 molar, day 4",23%
same,diff. cells / total (NBT reduction),"[2]; 15 × 10^-9 molar, day 4",9489/40666
same,% diff. (NBT reduction),"[2]; 15 × 10^-9 molar, day 6",17%
same,diff. cells / total (NBT reduction),"[2]; 15 × 10^-9 molar, day 6",8167/47032
same,% diff. (NBT reduction),"[2]; 45 × 10^-9 molar, day 3",49%
